Source: patent US12257237B2 (priority 2017, dated 2025)
Values joined by “and” are separate entries in the source; they are usually repeats but may differ in a detail not shown here. Identical values can stand only once.

Tested on: TC-71 Ewing sarcoma
Assay: Antitumour activity in TC-71 Ewing sarcoma xenograft model
Assay type: in vivo, Athymic nude mice
Settings: for optimal T/C: day 21; for mice still in CR at the end of the experiment: after second cycle
Experimental: Experiments were performed with female Athymic nude mice, 9-10 weeks old obtained from Harlan Laboratories (Udine, Italy). They were maintained under Specific Pathogen Free conditions with constant temperature and humidity, according to the institutional guidelines.
Tumour growth mice was monitored two/three times a week (depending on tumour growth rate, to avoid unnecessary stress to the animals) by Vernier caliper. Mice were sacrificed when tumour reached a mean weight of 2±0.5 gr. The antitumour activity will be expressed as T/C %, where T and C were the mean tumour weight of treated and control groups, respectively. Mice were monitored daily and weighted at least two times a week. Tolerability was evaluated on the basis of body weight loss (BWL) and clinical observation.
Statistical analysis was performed with GraphPad Prism version 6.01 software (GraphPad software, Inc., La Jolla, CA, USA). ANOVA test was performed to evaluate if there were statistically significant differences between treated and control groups.
5×10^6 TC-71 cells were inoculated subcutaneously in the right flank of mice. The growing tumour masses were measured with the aid of a Vernier caliper, and the tumour weights (1 mm^3=1 mg) were calculated by the formula: length×(width) 2/2. When tumour load achieved about 100 mg, mice were randomized into the experimental groups and treatment started.

[1] = EDO80: 80 mg/kg i.v. single dose, day 9 from inoculum
[2] = EDO80: 80 mg/kg i.v. single dose, day 11 from inoculum
[3] = EDO80: 80 mg/kg i.v. single dose, day 14 from inoculum
[4] = EDO80: 80 mg/kg i.v. single dose, day 16 from inoculum
[5] = EDO80: 80 mg/kg i.v. single dose, day 18 from inoculum
[6] = EDO80: 80 mg/kg i.v. single dose, day 21 from inoculum
[7] = EDO80: 80 mg/kg i.v. single dose, day 23 from inoculum
[8] = EDO80: 80 mg/kg i.v. single dose, day 25 from inoculum
[9] = EDO80: 80 mg/kg i.v. single dose, day 28 from inoculum
[10] = EDO80: 80 mg/kg i.v. single dose, day 30 from inoculum
[11] = EDO80: 80 mg/kg i.v. single dose, day 32 from inoculum
[12] = EDO80: 80 mg/kg i.v. single dose, day 35 from inoculum
[13] = EDO80: 80 mg/kg i.v. single dose, day 38 from inoculum
[14] = EDO80: 80 mg/kg i.v. single dose, day 42 from inoculum
[15] = EDO80: 80 mg/kg i.v. single dose, day 45 from inoculum
[16] = EDO80: 80 mg/kg i.v. single dose, day 49 from inoculum

Cn1c(CCCCCCC(=O)NO)nc2cc(N(CCCl)CCCl)ccc21 [EDO-S101, 7-(5-(bis(2-chloroethyl)amino)-1-methyl-1H-benzo[d]imidazol-2-yl)-N-hydroxyheptanamide]
optimal T/C (40 mg/kg i.v. q7dx3): 24% | tumour regression (40 mg/kg q7dx3): no tumour regression in tumour volume was observed | effect of a second cycle of treatments on tumour re-growth (60 mg/kg): further delayed tumour re-growth without being able to arrest it | complete regressions (CR) (60 mg/kg group): 3 out of 8 | tumour regression (60 mg/kg group): sustained tumour regressions in all of the treated mice | mice still in CR at the end of the experiment (60 mg/kg group): two | optimal T/C (60 mg/kg i.v. q7dx3): 1% | effect of a second cycle of treatments on tumour re-growth (80 mg/kg): further delayed tumour re-growth without being able to arrest it | complete regressions (CR) (80 mg/kg group): 4 out of 8 | tumour regression (80 mg/kg group): sustained tumour regressions in all of the treated mice | mice still in CR at the end of the experiment (80 mg/kg group): one | optimal T/C (80 mg/kg i.v. single dose): 0.5% | TC-71 tumour weight, mean (EDO40: 40 mg/kg i.v. q7dx3, day 9 from inoculum): 103.5 mg | TC-71 tumour weight, mean (EDO40: 40 mg/kg i.v. q7dx3, day 11 from inoculum): 180.4 mg | TC-71 tumour weight, mean (EDO40: 40 mg/kg i.v. q7dx3, day 14 from inoculum): 180.6 mg | TC-71 tumour weight, mean (EDO40: 40 mg/kg i.v. q7dx3, day 16 from inoculum): 236.4 mg | TC-71 tumour weight, mean (EDO40: 40 mg/kg i.v. q7dx3, day 18 from inoculum): 319.3 mg | TC-71 tumour weight, mean (EDO40: 40 mg/kg i.v. q7dx3, day 21 from inoculum): 348.4 mg | TC-71 tumour weight, mean (EDO40: 40 mg/kg i.v. q7dx3, day 23 from inoculum): 514.5 mg | TC-71 tumour weight, mean (EDO40: 40 mg/kg i.v. q7dx3, day 25 from inoculum): 548.0 mg | TC-71 tumour weight, mean (EDO40: 40 mg/kg i.v. q7dx3, day 28 from inoculum): 733.8 mg | TC-71 tumour weight, mean (EDO40: 40 mg/kg i.v. q7dx3, day 30 from inoculum): 1055.5 mg | TC-71 tumour weight, mean (EDO40: 40 mg/kg i.v. q7dx3, day 32 from inoculum): 1376.1 mg | TC-71 tumour weight, mean (EDO60: 60 mg/kg i.v. q7dx3, day 9 from inoculum): 106.1 mg | TC-71 tumour weight, mean (EDO60: 60 mg/kg i.v. q7dx3, day 11 from inoculum): 130.4 mg | TC-71 tumour weight, mean (EDO60: 60 mg/kg i.v. q7dx3, day 14 from inoculum): 76.1 mg | TC-71 tumour weight, mean (EDO60: 60 mg/kg i.v. q7dx3, day 16 from inoculum): 39.2 mg | TC-71 tumour weight, mean (EDO60: 60 mg/kg i.v. q7dx3, day 18 from inoculum): 24.2 mg | TC-71 tumour weight, mean (EDO60: 60 mg/kg i.v. q7dx3, day 21 from inoculum): 14.1 mg | TC-71 tumour weight, mean (EDO60: 60 mg/kg i.v. q7dx3, day 23 from inoculum): 19.1 mg | TC-71 tumour weight, mean (EDO60: 60 mg/kg i.v. q7dx3, day 25 from inoculum): 23.2 mg | TC-71 tumour weight, mean (EDO60: 60 mg/kg i.v. q7dx3, day 28 from inoculum): 22.9 mg | TC-71 tumour weight, mean (EDO60: 60 mg/kg i.v. q7dx3, day 30 from inoculum): 43.7 mg | TC-71 tumour weight, mean (EDO60: 60 mg/kg i.v. q7dx3, day 32 from inoculum): 119.4 mg | TC-71 tumour weight, mean (EDO60: 60 mg/kg i.v. q7dx3, day 35 from inoculum): 155.1 mg | TC-71 tumour weight, mean (EDO60: 60 mg/kg i.v. q7dx3, day 38 from inoculum): 205.8 mg | TC-71 tumour weight, mean (EDO60: 60 mg/kg i.v. q7dx3, day 42 from inoculum): 396.7 mg | TC-71 tumour weight, mean (EDO60: 60 mg/kg i.v. q7dx3, day 45 from inoculum): 601.3 mg | TC-71 tumour weight, mean (EDO60: 60 mg/kg i.v. q7dx3, day 49 from inoculum): 642.0 mg | TC-71 tumour weight, mean (EDO60: 60 mg/kg i.v. q7dx3, day 53 from inoculum): 906.2 mg | TC-71 tumour weight, mean (EDO60: 60 mg/kg i.v. q7dx3, day 56 from inoculum): 1549.1 mg | TC-71 tumour weight, individual mice [1]: 222.4 mg and 133.9 mg and 113.7 mg and 97.0 mg and 83.4 mg and 80.5 mg and 57.3 mg and 45.5 mg | TC-71 tumour weight, mean [1]: 104.2 mg | TC-71 tumour weight, individual mice [2]: 369.7 mg and 200.9 mg and 133.4 mg and 118.7 mg and 55.8 mg and 65.3 mg and 49.8 mg and 45.0 mg | TC-71 tumour weight, mean [2]: 129.8 mg | TC-71 tumour weight, individual mice [3]: 209.5 mg and 68.4 mg and 34.6 mg and 32.5 mg and 24.2 mg and 15.6 mg and 17.0 mg | TC-71 tumour weight, mean [3]: 51.7 mg | TC-71 tumour weight, individual mice [4]: 124.6 mg and 34.0 mg and 11.8 mg and 8.0 mg and 5.9 mg and 3.2 mg and 6.8 mg | TC-71 tumour weight, mean [4]: 25.6 mg | TC-71 tumour weight, individual mice [5]: 68.6 mg and 8.3 mg and 7.4 mg and 3.1 mg and 4.3 mg and 7.1 mg and 2.3 mg and 4.9 mg | TC-71 tumour weight, mean [5]: 13.2 mg | TC-71 tumour weight, individual mice [6]: 23.4 mg and 3.4 mg and 5.3 mg and 1.0 mg and 2.5 mg and 5.4 mg | TC-71 tumour weight, mean [6]: 7.3 mg | TC-71 tumour weight, individual mice [7]: 16.8 mg and 2.1 mg and 8.6 mg and 35.1 mg and 2.4 mg and 1.2 mg | TC-71 tumour weight, mean [7]: 11.0 mg | TC-71 tumour weight, individual mice [8]: 38.4 mg and 3.8 mg and 14.0 mg and 74.0 mg and 4.1 mg | TC-71 tumour weight, mean [8]: 26.9 mg | TC-71 tumour weight, individual mice [9]: 117.5 mg and 4.1 mg and 59.4 mg and 203.9 mg | TC-71 tumour weight, mean [9]: 65.7 mg | TC-71 tumour weight, individual mice [10]: 220.0 mg and 18.1 mg and 185.0 mg and 415.0 mg and 12.8 mg | TC-71 tumour weight, mean [10]: 126.3 mg | TC-71 tumour weight, individual mice [11]: 340.2 mg and 64.8 mg and 238.3 mg and 594.3 mg and 37.0 mg | TC-71 tumour weight, mean [11]: 199.8 mg | TC-71 tumour weight, individual mice [12]: 319.1 mg and 49.1 mg and 343.5 mg and 692.9 mg and 34.3 mg | TC-71 tumour weight, mean [12]: 225.9 mg | TC-71 tumour weight, individual mice [13]: 239.8 mg and 32.6 mg and 310.8 mg and 670.0 mg and 56.6 mg | TC-71 tumour weight, mean [13]: 204.0 mg | TC-71 tumour weight, individual mice [14]: 598.5 mg and 77.8 mg and 1030.8 mg and 1865.6 mg and 237.5 mg | TC-71 tumour weight, mean [14]: 601.9 mg | TC-71 tumour weight, individual mice [15]: 790.9 mg and 209.0 mg and 1741.1 mg and 2763.5 mg and 370.1 mg | TC-71 tumour weight, mean [15]: 944.7 mg | TC-71 tumour weight, individual mice [16]: 1094.7 mg and 481.3 mg and 3462.7 mg and 4619.8 mg | TC-71 tumour weight, mean [16]: 1657.1 mg
